Experimental data from US10669289B2, “Boronic acid derivatives” (MERCK PATENT GMBH, priority 2014, dated 2020).

Legend:
[1] = target: human constitutive proteasome (Beta5) (Homo sapiens (Human), UniProt P28074); assay: Determination of Beta5 activity (fluorescence intensity assay, Suc-LLVY-AMC); format: biochemical
Description: Determination of Beta5 Activity:
Measurement of Beta5 inhibition is performed in 384 well format based on fluorescence intensity assay.
(§1) Purified human constitutive proteasome (1.25 nM) and serial diluted compounds in DMSO (range of concentrations from 30 μM to 15 pM) or controls are incubated for 20 minutes or 120 minutes (long incubation) at 25° C. in assay buffer containing 50 mM Tris pH 7.4, 0.03% SDS, 1 mM EDTA and 1% DMSO. The reaction is initiated by the addition of the fluorogenic peptide substrate, Suc-LLVY-AMC (Bachem 1-1395), at a concentration of 40 μM. After 60 minutes of incubation at 37° C., fluorescence intensity is measured at λex=350 nm and λem=450 nm with a fluorescence reader (Perkin Elmer Envision reader or equivalent).
(§2) Unless indicated otherwise the results are obtained after incubation for 20 minutes.

[2] = target: human immuno proteasome (LMP7) (Homo sapiens (Human), UniProt P28062); assay: Determination of LMP7 activity (fluorescence intensity assay, Suc-LLVY-AMC); format: biochemical
Description: Determination of LMP7 Activity:
Measurement of LMP7 inhibition is performed in 384 well format based on fluorescence intensity assay.
as §1, with “immuno” for “constitutive”, “(0.25” for “(1.25”
as §2

[3] = LMP7 versus Beta5, incubation for 20 minutes
[4] = LMP7 versus Beta5, long incubation (120 min)

| SMILES | IC50 ([1]; incubation for 20 minutes) | Selectivity LMP7 vs Beta5 [2, 3] | IC50 ([2]; incubation for 20 minutes) | IC50 ([1]; long incubation (120 min)) | Selectivity LMP7 vs Beta5 [2, 4] | IC50 ([2]; long incubation (120 min)) |
| --- | --- | --- | --- | --- | --- | --- |
| C=CC(=O)N(CCC)CC(=O)N[C@@H](Cc1ccc(C)cc1C)B(O)O [Compound No. 6, [(1R)-2-(2,4-dimethylphenyl)-1-[[2-[prop-2-enoyl(propyl)amino]-acetyl]amino]ethyl]boronic Acid] | > 5000 nM | +++++ (Selectivity ≥ 150) | 50 to 500 nM | – | – | – |
| C=CC(=O)N(c1ccccc1)[C@@H](C)C(=O)N[C@@H](Cc1ccc(C)c(C)c1)B(O)O [Compound No. 48, [(1R)-2-(3,4-dimethylphenyl)-1-[[(2S)-2-(N-prop-2-enoylanilino)propanoyl]amino]ethyl]boronic Acid] | > 5000 nM | ++ (50 ≤ Selectivity < 70) | 500 to 5000 nM | – | – | – |
| C=CC(=O)N(C)CC(=O)N[C@@H](Cc1cccc2ccccc12)B(O)O [Compound No. 80, [(1R)-1-[[2-[methyl(prop-2-enoyl)amino]acetyl]amino]-2-(1-naphthyl)ethyl]boronic Acid] | – | – | – | > 5000 nM | +++++ (Selectivity ≥ 150) | 50 to 500 nM |
| C=CC(=O)N(CC(=O)N[C@@H](Cc1ccc(C)cc1C)B(O)O)c1cccc(F)c1F [Compound No. 41, [(1R)-1-[[2-(2,3-difluoro-N-prop-2-enoyl-anilino)acetyl]amino]-2-(2,4-dimethylphenyl)ethyl]boronic Acid] | – | – | – | > 5000 nM | +++++ (Selectivity ≥ 150) | < 50 nM |
| C=CC(=O)N(CC)CC(=O)N[C@@H](Cc1ccc(Cl)cc1)B(O)O [Compound No. 25, [(1R)-2-(4-chlorophenyl)-1-[[2-[ethyl(prop-2-enoyl)amino]acetyl]-amino]ethyl]boronic Acid] | 500 to 5000 nM | + (Selectivity < 50) | 50 to 500 nM | – | – | – |
| C=CC(=O)N(CC)CC(=O)N[C@@H](Cc1ccc(C)c(C)c1C)B(O)O [Compound No. 72, [(1R)-1-[[2-[ethyl(prop-2-enoyl)amino]acetyl]amino]-2-(2,3,4-trimethylphenyl)ethyl]boronic Acid] | – | – | – | > 5000 nM | +++++ (Selectivity ≥ 150) | 50 to 500 nM |
| C=CC(=O)N(C)[C@@H](C)C(=O)N[C@@H](Cc1ccc(C)cc1C)B(O)O [Compound No. 49, [(1R)-2-(2,4-dimethylphenyl)-1-[[(2S)-2-[methyl(prop-2-enoyl)amino]propanoyl]amino]ethyl]boronic Acid] | – | – | – | > 5000 nM | ++++ (100 ≤ Selectivity < 150) | 50 to 500 nM |
| C=C(C)C(=O)N(CC)CC(=O)N[C@@H](Cc1ccccc1)B(O)O [Compound No. 28, [(1R)-1-[[2-[ethyl(2-methylprop-2-enoyl)amino]acetyl]amino]-2-phenyl-ethyl]boronic Acid] | > 5000 nM | + (Selectivity < 50) | 500 to 5000 nM | – | – | – |
| C=CC(=O)N1CCCC[C@H]1C(=O)N[C@@H](Cc1ccc(C)cc1C)B(O)O [Compound No. 39, [(1R)-2-(2,4-dimethylphenyl)-1-[[(2S)-1-prop-2-enoylpiperidine-2-carbonyl]amino]ethyl]boronic Acid] | – | – | – | > 5000 nM | ++ (50 ≤ Selectivity < 70) | 500 to 5000 nM |
| C=CC(=O)N1CCC[C@@H]1C(=O)N[C@@H](Cc1ccc(C)cc1C)B(O)O [Compound No. 53, [(1R)-2-(2,4-dimethylphenyl)-1-[[(2R)-1-prop-2-enoylpyrrolidine-2-carbonyl]amino]ethyl]boronic Acid] | – | – | – | > 5000 nM | ++ (50 ≤ Selectivity < 70) | 500 to 5000 nM |
| C=CC(=O)N(C)CC(=O)N[C@@H](Cc1ccsc1)B(O)O [Compound No. 75, [(1R)-1-[[2-[methyl(prop-2-enoyl)amino]acetyl]amino]-2-(3-thienyl)ethyl]boronic Acid] | – | – | – | > 5000 nM | +++++ (Selectivity ≥ 150) | 50 to 500 nM |
| C=CC(=O)N(CC(=O)N[C@@H](Cc1ccc(C)cc1C)B(O)O)CC(F)F [Compound No. 84, [(1R)-1-[[2-[2,2-difluoroethyl(prop-2-enoyl)amino]acetyl]-amino]-2-(2,4-dimethylphenyl)ethyl]boronic Acid] | – | – | – | > 5000 nM | +++++ (Selectivity ≥ 150) | 50 to 500 nM |
| C=CC(=O)N(CC)CC(=O)N[C@@H](Cc1ccsc1)B(O)O [Compound No. 77, [(1R)-1-[[2-[ethyl(prop-2-enoyl)amino]acetyl]amino]-2-(3-thienyl)ethyl]boronic Acid] | – | – | – | > 5000 nM | +++++ (Selectivity ≥ 150) | < 50 nM |
| C=CC(=O)N(CC)CC(=O)N[C@@H](Cc1ccc(C)cc1)B(O)O [Compound No. 31, [(1R)-1-[[2-[ethyl(prop-2-enoyl)amino]acetyl]amino]-2-(p-tolyl)ethyl]-boronic Acid] | 500 to 5000 nM | ++++ (100 ≤ Selectivity < 150) | < 50 nM | – | – | – |
| C=CC(=O)N(C)CC(=O)N[C@@H](Cc1ccc(C)c(C)c1C)B(O)O [Compound No. 74, [(1R)-1-[[2-[methyl(prop-2-enoyl)amino]acetyl]amino]-2-(2,3,4-trimethylphenyl)ethyl]boronic Acid] | – | – | – | > 5000 nM | +++++ (Selectivity ≥ 150) | < 50 nM |
| C#CC(=O)N(C)CC(=O)N[C@@H](Cc1ccc(C)cc1C)B(O)O [Compound No. 11, [(1R)-2-(2,4-dimethylphenyl)-1-[[2-[methyl(prop-2-ynoyl)amino]-acetyl]amino]ethyl]boronic Acid] | 500 to 5000 nM | +++ (70 ≤ 100) | < 50 nM | – | – | – |
| CC#CC(=O)N(CC)CC(=O)N[C@@H](Cc1ccc(C)cc1C)B(O)O [Compound No. 19, [(1R)-1-[[2-[but-2-ynoyl(ethyl)amino]acetyl]amino]-2-(2,4-dimethylphenyl)ethyl]boronic Acid] | 500 to 5000 nM | +++ (70 ≤ 100) | < 50 nM | – | – | – |
| C/C=C(/C)C(=O)N(CC)CC(=O)N[C@@H](Cc1ccc(C)cc1C)B(O)O [Compound No. 21, [(1R)-2-(2,4-dimethylphenyl)-1-[[2-[ethyl-[(Z)-2-methylbut-2-enoyl]amino]acetyl]amino]ethyl]boronic Acid] | > 5000 nM | ++ (50 ≤ Selectivity < 70) | 50 to 500 nM | – | – | – |
| C=CC(=O)N(CC(=O)N[C@@H](Cc1ccsc1)B(O)O)c1ccccc1F [Compound No. 78, [(1R)-1-[[2-(2-fluoro-N-prop-2-enoyl-anilino)acetyl]amino]-2-(3-thienyl)ethyl]boronic Acid] | – | – | – | > 5000 nM | +++++ (Selectivity ≥ 150) | < 50 nM |
| C=CC(=O)N(CC(=O)N[C@@H](Cc1ccsc1)B(O)O)c1cccc(CC)c1 [Compound No. 94, [(1R)-1-[[2-(3-ethyl-N-prop-2-enoyl-anilino)acetyl]amino]-2-(3-thienyl)ethyl]boronic Acid] | – | – | – | > 5000 nM | +++++ (Selectivity ≥ 150) | < 50 nM |
| CC#CC(=O)N(C)CC(=O)N[C@@H](Cc1ccc(C)cc1C)B(O)O [Compound No. 20, [(1R)-1-[[2-[but-2-ynoyl(methyl)amino]acetyl]amino]-2-(2,4-dimethylphenyl)ethyl]boronic Acid] | 500 to 5000 nM | + (Selectivity < 50) | < 50 nM | – | – | – |
| C#CC(=O)N(CC)CC(=O)N[C@@H](Cc1ccc(C)cc1C)B(O)O [Compound No. 12, [(1R)-2-(2,4-dimethylphenyl)-1-[[2-[ethyl(prop-2-ynoyl)amino]acetyl]-amino]ethyl]boronic Acid] | 500 to 5000 nM | ++++ (100 ≤ Selectivity < 150) | < 50 nM | – | – | – |
| C=CC(=O)N(c1ccccc1)[C@@H](C)C(=O)N[C@@H](Cc1ccc(C)cc1C)B(O)O [Compound No. 46, [(1R)-2-(2,4-dimethylphenyl)-1-[[(2S)-2-(N-prop-2-enoylanilino)propanoyl]amino]ethyl]boronic Acid] | > 5000 nM | ++ (50 ≤ Selectivity < 70) | 500 to 5000 nM | – | – | – |
| C=CC(=O)N(CC)CC(=O)N[C@@H](Cc1ccc2ccccc2c1)B(O)O [Compound No. 81, [(1R)-1-[[2-[ethyl(prop-2-enoyl)amino]acetyl]amino]-2-(2-naphthyl)ethyl]boronic Acid] | – | – | – | > 5000 nM | +++++ (Selectivity ≥ 150) | < 50 nM |
| C=CC(=O)N(CC(=O)N[C@@H](Cc1ccsc1)B(O)O)c1cc(Cl)cc(Cl)c1 [Compound No. 95, [(1R)-1-[[2-(3,5-dichloro-N-prop-2-enoyl-anilino)acetyl]amino]-2-(3-thienyl)ethyl]boronic Acid] | – | – | – | > 5000 nM | +++++ (Selectivity ≥ 150) | < 50 nM |
